What was measured:
[1] = cited from earlier work
red blood cells = experiment: Hemolytic activity assay (hemoglobin release from red blood cells); assay type: cell-based
Description: FIG. 7 provides hemolytic activity for Cytochrome C, OA, SD, HIP CytC OA, and HIP CytC SD at 37° C. and 4° C. to show the influence of membrane stiffness on membrane interaction, in accordance with some embodiments of the present disclosure. 20 μM CytC was given to each group and the concentration of counterion given was consistent with the charge ratios used for delivery experiments. Washed red blood cells were diluted to 0.5% v/v in PBS and 1% v/v Triton X-100 was used as the positive control.
Washed red blood cells (RBC's) were diluted to a 5% v/v concentration in PBS. 100 μL of nanoparticles or treatment were incubated with 10 μL RBC's at 37° C. for 1 hour in a 96 well plate. After incubation with HIP treatment groups, the microplate reader was used to measure released hemoglobin from membrane disruption using 541 nm and subtracting background at 561 nm, then normalizing hemolytic activity to 5% Triton X-100. For imaging RBC's and NIH3T3/eGFP cells, an epifluorescent microscope (Zeiss Axio Observer Z1) with an 40× lens. […]

[2] = Dynamic light scattering: z-average size and polydispersity of HIP complexes; assay type: physicochemical; details: DLS
Description: Size and zeta potential were measured using dynamic light scattering (DLS) using Malvern Instruments Zetasizer NanoZS intensity mode with a 4 mW He—Ne laser with 633 nm wavelength to detect backscattering) (173° using 1× for DLS or 0.1× PBS for zeta potential at pH 7.4 solvent conditions and protein material selection. Z-average values were used for HIP complex size. Electrophoretic mobility was converted to zeta potential using the Smoluchowski approximation. Imaging of solutions was performed using an epifluorescence microscope (Zeiss Axio Observer Z1) using a 100× oil immersion lens. Transmission electron microscopy (TEM) grids were prepared using 10 μL sample on copper grids, letting the sample adhere for 5 minutes, washing in water for 30 seconds, staining with 1% phosphotungstic acid for 10 seconds, washing again for 30 seconds, and drying overnight. A JEOL 100 CX-II TEM was utilized to visualize samples.

| Molecule | Log P [1] | hemolytic activity at reduced temperature (red blood cells; 4° C. compared with 37° C.) | polydispersity index (PDI) [2] | z-average hydrodynamic diameter ([2]; 1× PBS pH 7.4) [nm] | relative hemolytic activity (red blood cells; 37° C., same concentration as in HIP CytC complexes) |
| --- | --- | --- | --- | --- | --- |
| c1ccc(CCNCc2ccccc2)cc1 [benethamine, N-benzyl-2-phenylthanamine] | 3.6 |  |  |  |  |
| CCCCC(CC)COC(=O)CC(C(=O)OCC(CC)CCCC)S(=O)(=O)[O-].[Na+] (stereo not drawn) [sodium docusate, reference compound] | 5.2 | remained high |  |  |  |
| CytC: 12.4 kDa positively charged protein; induces apoptosis upon delivery to the mitochondrial membrane |  |  | 0.542±0.17 | 729±460 | greater than 100% |

From patent publication US20260232758A1, “Low Cost Efficient Intracellular Delivery of Proteins and Nucleic Acids via Hydrophobic Ion Pairing” (Georgia Tech Research Corporation, priority 2023, published 2026)
